Data as given in patent publication US11098040B2, “Compounds and methods of use” (Ferro Therapeutics, Inc., priority 2018, dated 2021).
Like-named read-outs stand apart in the source and are kept apart here.

Experiments:
[1] = test system: 786-O; assay: Cell proliferation (Alamar Blue) assay, 786-O renal cell carcinoma, with/without ferrostatin; format: cell-based; details: Homo sapiens
Procedure, shortened: (§1)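 Cells seeded at 5000/well, 16-24 h, then exposed 24 h at 37° C to compound, 10-0.0005 μM in 3-fold dilutions, 1% DMSO final. Alamar Blue fluorescence (ex 540/em 590 nm) read after 1.5 h; IC50 from variable-slope sigmoidal fit.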

[2] = test system: A431; assay: Cell proliferation (Alamar Blue) assay, A431; format: cell-based; details: Homo sapiens, A-431; Cell Line A431
Description: Cells (SJSA-1, 786-O and A431) were seeded (5000 cells/100 μL/well) in 96-well tissue culture plate and incubated at 37° C./5% CO2 for 16-24 hours. The cells were then treated with compounds (25 μL of 5×). The compound concentrations were 10-0.0005 μM prepared in 3-fold serial dilutions with final DMSO concentration of 1%. The plates were then incubated for 24 h at 37° C./5% CO2 in a moist environment. Then Alamar Blue™ reagent (final concentration 1×-12.5 μL) was added to each well and incubated for 1.5 hours at 37° C./5% CO2. The plates were read on fluorescence reader at 540 nm excitation and 590 nm emission wavelengths. The IC50 values were subsequently determined using a sigmoidal dose-response curve (variable slope) in GraphPad Prism® 5 software.
The cell proliferation assays for the compounds shown Table 25 was performed according to the protocols described herein, including Examples 4 and 6.

[3] = test system: SJSA-1; assay: Cell proliferation (Alamar Blue) assay, SJSA-1 osteosarcoma, with/without ferrostatin; format: cell-based, human; details: Homo sapiens
Procedure, shortened: as §1

[4] = 786-0, Cell Line 786-O, read-out: IC50
[5] = SJSA-1, Cell Line SJSA-1, read-out: IC50
[6] = 786-0, 24 h, Alamar Blue, 24 h, 2 μM ferrostatin, read-out: 786-O (IC50, μM) 2 μM Ferrostatin
[7] = 786-0, 24 h, Alamar Blue, 24 h, without ferrostatin, read-out: 786-O (IC50, μM) Without Ferrostatin
[8] = SJSA-1, 24 h, Alamar Blue, 24 h, 2 μM ferrostatin, read-out: SJSA-1 (IC50, μM) 2 μM Ferrostatin
[9] = SJSA-1, 24 h, Alamar Blue, 24 h, without ferrostatin, read-out: SJSA-1 (IC50, μM) Without Ferrostatin

| SMILES | IC50 [1, 4] | IC50 [2] | IC50 [3, 5] | IC50 [1, 6] | IC50 [1, 7] | IC50 [3, 8] | IC50 [3, 9] |
| --- | --- | --- | --- | --- | --- | --- | --- |
| C[C@H]1Cc2c([nH]c3ccccc23)[C@H](c2ccc(C(=O)Nc3ccccn3)cc2)N1C(=O)CCl (single isomer, unassigned) [Compound 219] | 0.051 µM | 1900 nM | 0.036 µM |  |  |  |  |
| C[C@H]1Cc2c([nH]c3ccc(F)cc23)[C@H](c2ccc(S(=O)(=O)NC3CC3)cc2F)N1C(=O)CCl (stereo in doubt) [Compound 164, 4-((1S,3S)-2-(2-chloroacetyl)-6-fluoro-3-methyl-2,3,4,9-tetrahydro-1H-pyrido[3,4-b]indol-1-yl)-N-cyclopropyl-3-fluorobenzenesulfonamide] | 0.023 µM | 9940 nM | 0.013 µM | 6.34 µM | 0.023 µM | 7.06 µM | 0.013 µM |
| Cc1cc(N2CCOCC2)ccc1[C@@H]1c2[nH]c3ccccc3c2C[C@H](C)N1C(=O)CCl [Compound 128, 2-chloro-1-((1R,3S)-3-methyl-1-(2-methyl-4-morpholinophenyl)-1,3,4,9-tetrahydro-2H-pyrido[3,4-b]indol-2-yl)ethan-1-one] | 0.188 µM | > 10000 nM | 0.184 µM |  |  |  |  |
| C[C@H]1Cc2c([nH]c3ccccc23)[C@@H](c2ccc(N3CCOCC3)cc2F)N1C(=O)CCl [Compound 129] | 4.2 µM | 4400 nM | 4.4 µM |  |  |  |  |
| C[C@H]1Cc2c([nH]c3ccccc23)[C@H](c2ccc(CN3CCOCC3)cc2)N1C(=O)CCl [Compound 132] | 3.8 µM | 6000 nM | 6.8 µM |  |  |  |  |
| C#CC(=O)N1[C@@H](CCCC)Cc2c([nH]c3ccc(F)cc23)[C@@H]1c1ccc(S(=O)(=O)NC2CCC2)cc1 [Compound 143, 4-((1S,3S)-3-butyl-6-fluoro-2-propioloyl-2,3,4,9-tetrahydro-1H-pyrido[3,4-b]indol-1-yl)-N-cyclobutylbenzenesulfonamide] | 0.009 µM | 2700 nM | 0.009 µM |  |  |  |  |
| C#CC(=O)N1[C@@H](COC)Cc2c([nH]c3ccccc23)[C@@H]1c1ccc(S(=O)(=O)NC2CC2)cc1F [Compound 144] | 0.007 µM | 3500 nM | 0.025 µM |  |  |  |  |
| CCCC[C@H]1Cc2c([nH]c3ccc(F)cc23)[C@H](c2ccc(S(=O)(=O)NC3CCC3)cc2)N1C(=O)CCl [Compound 145, 4-((1S,3S)-3-butyl-2-(2-chloroacetyl)-6-fluoro-2,3,4,9-tetrahydro-1H-pyrido[3,4-b]indol-1-yl)-N-cyclobutylbenzenesulfonamide] | 0.003 µM | 4600 nM | 0.004 µM |  |  |  |  |
| C#CC(=O)N1[C@@H](c2ccc(F)cc2)c2[nH]c3ccccc3c2C[C@@H]1C(=O)OC [Compound 146, methyl (1S,3R)-1-(4-fluorophenyl)-2-propioloyl-2,3,4,9-tetrahydro-1H-pyrido[3,4-b]indole-3-carboxylate] | 0.023 µM | 2400 nM | 0.03 µM |  |  |  |  |
| C#CCOc1ccc([C@H]2c3[nH]c4ccccc4c3C[C@H](C(=O)OC)N2C(=O)CCl)cc1 [Compound 147, methyl (1S,3R)-2-(2-chloroacetyl)-1-(4-(prop-2-yn-1-yloxy)phenyl)-2,3,4,9-tetrahydro-1H-pyrido[3,4-b]indole-3-carboxylate] | 0.049 µM | > 10000 nM | 0.159 µM |  |  |  |  |
| C#CC(=O)N1[C@@H](c2ccc(S(=O)(=O)NC3CC3)cc2F)c2[nH]c3ccc(Cl)cc3c2C[C@@H]1C [Compound 151] | 0.018 µM | 5220 nM | 0.037 µM |  |  |  |  |
| C[C@H]1Cc2c([nH]c3ccccc23)[C@@H](c2ccc(N3CCOCC3)nc2)N1C(=O)CCl [Compound 157] | > 10 µM | 2000 nM | > 10 µM |  |  |  |  |
| C[C@H]1Cc2c([nH]c3ccccc23)C(c2ccc(-n3ccnc3)cc2)N1C(=O)CCl (stereo partly drawn) [Compound 163, 1-((3S)-1-(4-(1H-imidazol-1-yl)phenyl)-3-methyl-1,3,4,9-tetrahydro-2H-pyrido[3,4-b]indol-2-yl)-2-chloroethan-1-one] | 6.4 µM | > 10000 nM | > 10 µM |  |  |  |  |
| C#CC(=O)N1[C@@H](c2ccc(S(=O)(=O)NC3CC3)cc2F)c2[nH]c3ccc(OC)cc3c2C[C@@H]1C [Compound 165, N-cyclopropyl-3-fluoro-4-((1S,3S)-6-methoxy-3-methyl-2-propioloyl-2,3,4,9-tetrahydro-1H-pyrido[3,4-b]indol-1-yl)benzenesulfonamide] | 0.047 µM | 3440 nM | 0.119 µM | 4.79 µM | 0.047 µM | 3.77 µM | 0.119 µM |
| COC[C@H]1Cc2c([nH]c3ccccc23)[C@H](c2ccc(C(=O)NC3CC3)cc2F)N1C(=O)CCl [Compound 166, 4-((1S,3R)-2-(2-chloroacetyl)-3-(methoxymethyl)-2,3,4,9-tetrahydro-1H-pyrido[3,4-b]indol-1-yl)-N-cyclopropyl-3-fluorobenzamide] | 0.008 µM | > 10000 nM | 0.01 µM | 9.52 µM | 0.008 µM | > 10 µM | 0.01 µM |
| C#CC(=O)N1[C@@H](CCCC)Cc2c([nH]c3ccccc23)[C@@H]1c1ccc(S(=O)(=O)NC2CC2)cc1F [Compound 167, 4-((1S,3S)-3-butyl-2-propioloyl-2,3,4,9-tetrahydro-1H-pyrido[3,4-b]indol-1-yl)-N-cyclopropyl-3-fluorobenzenesulfonamide] | 0.005 µM | 1930 nM | 0.011 µM | 2 µM | 0.005 µM | 4.01 µM | 0.011 µM |
| C[C@H]1Cc2c([nH]c3ccccc23)[C@H](c2ccc3c(c2)CNC3=O)N1C(=O)CCl [Compound 168, 5-((1S,3S)-2-(2-chloroacetyl)-3-methyl-2,3,4,9-tetrahydro-1H-pyrido[3,4-b]indol-1-yl)isoindolin-1-one] | 0.487 µM | 5090 nM | 0.56 µM | 3.31 µM | 0.487 µM | > 10 µM | 0.56 µM |
| C[C@H]1Cc2c([nH]c3ccccc23)[C@H](c2ccc(S(=O)(=O)N(C)C3CC3)cc2F)N1C(=O)CCl [Compound 170] | 0.058 µM | 4190 nM | 0.062 µM | 8.09 µM | 0.058 µM | 9.11 µM | 0.062 µM |
| C[C@H]1Cc2c([nH]c3ccc(Cl)cc23)[C@H](c2ccc(S(=O)(=O)NC3CC3)cc2F)N1C(=O)CCl [Compound 172, 4-((1S,3S)-6-chloro-2-(2-chloroacetyl)-3-methyl-2,3,4,9-tetrahydro-1H-pyrido[3,4-b]indol-1-yl)-N-cyclopropyl-3-fluorobenzenesulfonamide] | 0.023 µM | 2110 nM | 0.023 µM | 6.76 µM | 0.023 µM | 4.1 µM | 0.023 µM |
| C[C@H]1Cc2c([nH]c3ccccc23)C(c2ccc(S(N)(=O)=O)cc2)N1C(=O)CCl (stereo partly drawn) [Example 123] |  | 5400 nM | 4.7 µM |  |  |  |  |

Next, values leading:

| IC50 [1, 4] | IC50 [2] | IC50 [3, 5] | IC50 [1, 6] | IC50 [1, 7] | IC50 [3, 8] | IC50 [3, 9] | SMILES |
| --- | --- | --- | --- | --- | --- | --- | --- |
|  | 2800 nM | > 10 µM |  |  |  |  | CC1CN(c2ccc([C@@H]3c4[nH]c5ccccc5c4C[C@H](C)N3C(=O)CCl)cc2)CCO1 (stereo partly drawn) [Example 127] |
|  | > 10000 nM | 1.4 µM |  |  |  |  | C[C@H]1Cc2c([nH]c3ccccc23)[C@H](c2cnn(C3CCOCC3)c2)N1C(=O)CCl [Example 158] |
|  | 7000 nM | > 10 µM |  |  |  |  | C[C@H]1Cc2c([nH]c3ccccc23)[C@@H](c2cnn(C3CCOCC3)c2)N1C(=O)CCl [Example 159] |
|  | 8110 nM | 0.254 µM |  |  |  |  | C[C@H]1Cc2c([nH]c3ccccc23)[C@H](c2ccncc2)N1C(=O)CCl [Example 171] |
|  | 2990 nM | 0.091 µM |  |  |  |  | C#CC(=O)N1[C@@H](c2ccc(S(=O)(=O)NC3CC3)cc2F)c2[nH]c3ccccc3c2C[C@@H]1C [Example 174] |
|  | 3280 nM | 0.019 µM |  |  |  |  | CCS(=O)(=O)N1CCN(c2ccc([C@H]3c4[nH]c5ccccc5c4C[C@H](C)N3C(=O)CCl)cc2)CC1 [Example 209] |
|  | 2730 nM | 0.011 µM |  |  |  |  | C#CCOc1ccc2[nH]c3c(c2c1)C[C@H](C(=O)OC)N(C(=O)CCl)[C@H]3c1ccc(C(=O)NC23CC4CC(CC(C4)C2)C3)cc1 [Example 211] |
| 0.008 µM | 2510 nM |  |  |  |  |  | CC1CN(c2ccc([C@H]3c4[nH]c5ccccc5c4C[C@H](C)N3C(=O)CCl)cc2)CC(C)O1 (stereo partly drawn) [Example 212] |
|  | 10000 nM | 0.093 µM |  |  |  |  | C[C@H]1Cc2c([nH]c3ccccc23)[C@H](c2ccc(N3CCOCC3)nc2)N1C(=O)CCl [Example 220] |
